Test system: MCF7 complex spheroid growth, % test/control
Assay: Anticancer human tumor MCF7 cell line growth inhibition [Asc];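 note: spheroids exposed to compounds for 7 days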;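 for viability, T/C: 100% = DMSO vehicle control wells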
Details: for IC50: curve of first compound; for viability, T/C: stronger effect = lower value
Description: Multicellular complex tumor spheroid response to apoptosis pathway targeting inhibitors Alrizomadlin, Pelcitoclax, and Dasminapant in combination with a variety of drugs and investigational agents in selected tumor cell lines
The MDM2 inhibitor alrizomadlin, the Bcl-2/Bcl-xL inhibitor pelcitoclax, and the IAPs inhibitor dasminapant were evaluated both individually and in combination with standard of care and investigational anticancer small molecules within a complex spheroid model of solid tumors. . Complex spheroids include a stromal component modeled by human endothelial cells (HUVEC) and fibroblasts modeled by human mesenchymal stem cells (MSCs). The concentration ranges selected for each drug and investigational agent were based upon clinically achievable concentrations if the clinical Cmax of the agent was known.
Compounds. The drugs and investigational agents: alrizomadlin (APG-115; NSC831270), pelcitoclax (APG-1252; NSC835773), dasminapant (APG-1387;NSC834197), TAK-243 (NSC785004), copanlisib (NSC809693), olaparib (NSC753686), talazoparib (NSC767125), cobimetinib (NSC 768068), eltanexor (KPT-8602, NSC 794443), abemaciclib (NSC 768073), sotorasib (NSC818433), adagrasib (NSC 831453), MRTX-1133 (NSC 836407), Iadademestat (ORY1001, NSC 806812), and RMC-4630 (NSC839698), were obtained from the NCI Developmental Therapeutics Program Chemical Repository. The FDA-approved anticancer drug set is available from the Developmental Therapeutics Program at https://dtp.cancer.gov/organization/dscb/obtaining/available plates.htm. […] The stock solutions were prepared in dimethyl sulfoxide (DMSO, Sigma-Aldrich, St. Louis, MO, cat. D2650) at 800-fold the tested concentration and stored at -70 degrees C prior to their use. All drugs and investigational agents were tested over a range starting from a high concentration at or near the clinical Cmax and decreasing in half-log increments. If the clinical Cmax for an agent had not been determined, the highest concentration tested was 10 microM.
The patient-derived cancer (PDC) cell lines include five colon adenocarcinomas: 186277-243-T-J2-PDC, 616215-338-R-J1-PDC, 439559-082-T-J2-PDC, 463943-066-T-J2-PDC, and 519858-162-T-J1-PDC; three pancreatic carcinomas: 323965-272-R-J2-PDC, 521955-158-R6-J3-PDC, and 521955-158-R2-J5-PDC; two uterine sarcomas: 327498-152-R-J2-PDC and 993429-296-R-J1-PDC; two rhabdomyosarcomas: 755483-174-R-J1-PDC and 772245-204-R-J1-PDC; two soft tissue sarcomas: 126254-015-R-J1-PDC and 494315-158-R-J1-PDC; two malignant fibrous histiocytomas: 317291-083-R-J1-PDC and 596521-263-R-J1-PDC; two breast carcinomas: 171881-019-R-J1-PDC and 885512-296-R-J2-PDC; and one ovarian carcinoma: 6556581-035-R-J-PDC were obtained from the NCI PDMR, (https://pdmr.cancer.gov). The established cell lines HSSY-2 synovial sarcoma (RRID:CVCL 8719), SYO-1 synovial sarcoma (RRID:CVCL_7146), MPNST malignant peripheral neural sheath tumor were obtained from the Sloan Kettering Institute. The following established cell lines were purchased from the American Type Culture Collection (ATCC, Manassas, VA), Sor the received from the NCI repository:, PANC-1 pancreatic carcinoma (CRL-1469, RRID:CVCL_0480), OVCAR-5 ovarian carcinoma (RRID:CVCL_1628), OVCAR-8 ovarian carcinoma (RRID:CVCL_1629), , MCF-7 breast carcinoma (CRL-12584, RRID:CVCL_0031), MDA-MB-231 breast carcinoma (CRL-12532, RRID:CVCL_0062), NCI-H1876 small cell lung carcinoma (CRL-5902, RRID:CVCL_1503), NCI-H510A small cell lung carcinoma (HTB-184, RRID:CVCL_1565), NCI-H1417 (CRL-5869, RRID:CVCL_1469), and NCI-H196 small cell lung carcinoma (CRL-5823, RRID:CVCL_1509). Dr. Peter Houghton (Greehey Children's Cancer Research Institute, University of Texas Health Science Center, San Antonio, TX) provided Rh-18 rhabdomyosarcoma (RRID:CVCL_1659). Pooled donor human umbilical vein endothelial cells (HUVEC, Lonza, cat. CC-2519) and human mesenchymal stem cells (hMSC, Lonza, cat. PT-2501) were purchased from Lonza (Walkersville, MD).
Cell Culture. […]

[1] = second compound 0.00949 µM, first compound 0.0316 µM
[2] = second compound 0.00949 µM, first compound 0.1 µM
[3] = second compound 0.03 µM, first compound 0.0316 µM
[4] = second compound 0.03 µM, first compound 0.1 µM
[5] = second compound 0.0949 µM, first compound 0.0316 µM
[6] = second compound 0.0949 µM, first compound 0.1 µM
[7] = second compound 0.3 µM, first compound 0.0316 µM
[8] = second compound 0.3 µM, first compound 0.1 µM
[9] = second compound 0.949 µM, first compound 0.0316 µM
[10] = second compound 0.949 µM, first compound 0.1 µM
[11] = second compound 3 µM, first compound 0.0316 µM
[12] = second compound 3 µM, first compound 0.1 µM

## Cn1ncnc1[C@H]1c2n[nH]c(=O)c3cc(F)cc(c23)N[C@@H]1c1ccc(F)cc1 + CCN1C(C(=O)NC23CCC(C(=O)O)(CC2)CC3)C(c2cccc(Cl)c2F)C2(C(=O)Nc3cc(Cl)ccc32)C12CCCCC2
Second compound 0.00949 µM
  IC50: > 100 nM
Second compound 0.03 µM
  IC50: > 100 nM
Second compound 0.0949 µM
  IC50: 1.99 nM
Second compound 0.3 µM
  IC50: < 0.316 nM
Second compound 0.949 µM
  IC50: < 0.316 nM
Second compound 3 µM
  IC50: < 0.316 nM
Second compound 0.00949 µM, first compound 0.000316 µM
  viability, T/C: 121%
Second compound 0.00949 µM, first compound 0.001 µM
  viability, T/C: 98.8%
Second compound 0.00949 µM, first compound 0.00316 µM
  viability, T/C: 116%
Second compound 0.00949 µM, first compound 0.01 µM
  viability, T/C: 73.1%
[1]
  viability, T/C: 92.4%
[2]
  viability, T/C: 67%
Second compound 0.03 µM, first compound 0.000316 µM
  viability, T/C: 67.4%
Second compound 0.03 µM, first compound 0.001 µM
  viability, T/C: 96.7%
Second compound 0.03 µM, first compound 0.00316 µM
  viability, T/C: 75.8%
Second compound 0.03 µM, first compound 0.01 µM
  viability, T/C: 77.6%
[3]
  viability, T/C: 55.1%
[4]
  viability, T/C: 51%
Second compound 0.0949 µM, first compound 0.000316 µM
  viability, T/C: 51.9%
Second compound 0.0949 µM, first compound 0.001 µM
  viability, T/C: 56.7%
Second compound 0.0949 µM, first compound 0.00316 µM
  viability, T/C: 52.3%
Second compound 0.0949 µM, first compound 0.01 µM
  viability, T/C: 38.8%
[5]
  viability, T/C: 37.7%
[6]
  viability, T/C: 37%
Second compound 0.3 µM, first compound 0.000316 µM
  viability, T/C: 35.9%
Second compound 0.3 µM, first compound 0.001 µM
  viability, T/C: 29.8%
Second compound 0.3 µM, first compound 0.00316 µM
  viability, T/C: 29.7%
Second compound 0.3 µM, first compound 0.01 µM
  viability, T/C: 32.9%
[7]
  viability, T/C: 26.1%
[8]
  viability, T/C: 29.1%
Second compound 0.949 µM, first compound 0.000316 µM
  viability, T/C: 21.5%
Second compound 0.949 µM, first compound 0.001 µM
  viability, T/C: 23.1%
Second compound 0.949 µM, first compound 0.00316 µM
  viability, T/C: 16.4%
Second compound 0.949 µM, first compound 0.01 µM
  viability, T/C: 15.9%
[9]
  viability, T/C: 20.8%
[10]
  viability, T/C: 18.4%
Second compound 3 µM, first compound 0.000316 µM
  viability, T/C: 15.6%
Second compound 3 µM, first compound 0.001 µM
  viability, T/C: 17.2%
Second compound 3 µM, first compound 0.00316 µM
  viability, T/C: 15.5%
Second compound 3 µM, first compound 0.01 µM
  viability, T/C: 13.1%
[11]
  viability, T/C: 13.9%
[12]
  viability, T/C: 14.6%

## O=C(c1cc(Cc2n[nH]c(=O)c3ccccc23)ccc1F)N1CCN(C(=O)C2CC2)CC1 + CCN1C(C(=O)NC23CCC(C(=O)O)(CC2)CC3)C(c2cccc(Cl)c2F)C2(C(=O)Nc3cc(Cl)ccc32)C12CCCCC2
Second compound 0.00949 µM
  IC50: > 10000 nM
Second compound 0.03 µM
  IC50: > 10000 nM
Second compound 0.0949 µM
  IC50: < 31.6 nM
Second compound 0.3 µM
  IC50: < 31.6 nM
Second compound 0.949 µM
  IC50: < 31.6 nM
Second compound 3 µM
  IC50: < 31.6 nM
[1]
  viability, T/C: 133%
[2]
  viability, T/C: 96.8%
Second compound 0.00949 µM, first compound 0.316 µM
  viability, T/C: 107%
Second compound 0.00949 µM, first compound 1 µM
  viability, T/C: 106%
Second compound 0.00949 µM, first compound 3.16 µM
  viability, T/C: 92.3%
Second compound 0.00949 µM, first compound 10 µM
  viability, T/C: 73%
[3]
  viability, T/C: 85.6%
[4]
  viability, T/C: 81.5%
Second compound 0.03 µM, first compound 0.316 µM
  viability, T/C: 87%
Second compound 0.03 µM, first compound 1 µM
  viability, T/C: 86%
Second compound 0.03 µM, first compound 3.16 µM
  viability, T/C: 74.2%
Second compound 0.03 µM, first compound 10 µM
  viability, T/C: 62.2%
[5]
  viability, T/C: 46.7%
[6]
  viability, T/C: 47.4%
Second compound 0.0949 µM, first compound 0.316 µM
  viability, T/C: 51.4%
Second compound 0.0949 µM, first compound 1 µM
  viability, T/C: 45.5%
Second compound 0.0949 µM, first compound 3.16 µM
  viability, T/C: 38.9%
Second compound 0.0949 µM, first compound 10 µM
  viability, T/C: 44.5%
[7]
  viability, T/C: 34.3%
[8]
  viability, T/C: 30.3%
Second compound 0.3 µM, first compound 0.316 µM
  viability, T/C: 32.8%
Second compound 0.3 µM, first compound 1 µM
  viability, T/C: 30.6%
Second compound 0.3 µM, first compound 3.16 µM
  viability, T/C: 29.4%
Second compound 0.3 µM, first compound 10 µM
  viability, T/C: 29%
[9]
  viability, T/C: 21%
[10]
  viability, T/C: 22.7%
Second compound 0.949 µM, first compound 0.316 µM
  viability, T/C: 21.5%
Second compound 0.949 µM, first compound 1 µM
  viability, T/C: 21.6%
Second compound 0.949 µM, first compound 3.16 µM
  viability, T/C: 25.7%
Second compound 0.949 µM, first compound 10 µM
  viability, T/C: 19.6%
[11]
  viability, T/C: 13.7%
[12]
  viability, T/C: 16.2%
Second compound 3 µM, first compound 0.316 µM
  viability, T/C: 14.4%
Second compound 3 µM, first compound 1 µM
  viability, T/C: 14.9%
Second compound 3 µM, first compound 3.16 µM
  viability, T/C: 18.9%
Second compound 3 µM, first compound 10 µM
  viability, T/C: 15.9%

From PubChem BioAssay AID1963445 (Molecular Pharmacology Branch, DTP, NCI, 2024)
